Laboratory results: patent publication US20100004222A1, “Amide Derivatives as Ion-Channel Ligands and Pharmaceutical Compositions and Methods of Using the Same” (Renovis, Inc., priority 2006, published 2010)

Tests used:
VR1 [1] = target: T1, VR1 (Homo sapiens, UniProt Q8NER1); test: Calcium uptake assay, low pH (proton) agonist; type: cell-based; set-up: expressed in transfected cells; host or cells: T-REx HEK 293 (Invitrogen), pcDNA5/TO vector; conditions: HEK293; 0.3 μM compound; low pH (protons) as agonist; HEK 293 cells expressing hVR1; read-out: Low pH % Inhib. @ 0.3 μM
Target sequence in this assay (Q8NER1 whole entry): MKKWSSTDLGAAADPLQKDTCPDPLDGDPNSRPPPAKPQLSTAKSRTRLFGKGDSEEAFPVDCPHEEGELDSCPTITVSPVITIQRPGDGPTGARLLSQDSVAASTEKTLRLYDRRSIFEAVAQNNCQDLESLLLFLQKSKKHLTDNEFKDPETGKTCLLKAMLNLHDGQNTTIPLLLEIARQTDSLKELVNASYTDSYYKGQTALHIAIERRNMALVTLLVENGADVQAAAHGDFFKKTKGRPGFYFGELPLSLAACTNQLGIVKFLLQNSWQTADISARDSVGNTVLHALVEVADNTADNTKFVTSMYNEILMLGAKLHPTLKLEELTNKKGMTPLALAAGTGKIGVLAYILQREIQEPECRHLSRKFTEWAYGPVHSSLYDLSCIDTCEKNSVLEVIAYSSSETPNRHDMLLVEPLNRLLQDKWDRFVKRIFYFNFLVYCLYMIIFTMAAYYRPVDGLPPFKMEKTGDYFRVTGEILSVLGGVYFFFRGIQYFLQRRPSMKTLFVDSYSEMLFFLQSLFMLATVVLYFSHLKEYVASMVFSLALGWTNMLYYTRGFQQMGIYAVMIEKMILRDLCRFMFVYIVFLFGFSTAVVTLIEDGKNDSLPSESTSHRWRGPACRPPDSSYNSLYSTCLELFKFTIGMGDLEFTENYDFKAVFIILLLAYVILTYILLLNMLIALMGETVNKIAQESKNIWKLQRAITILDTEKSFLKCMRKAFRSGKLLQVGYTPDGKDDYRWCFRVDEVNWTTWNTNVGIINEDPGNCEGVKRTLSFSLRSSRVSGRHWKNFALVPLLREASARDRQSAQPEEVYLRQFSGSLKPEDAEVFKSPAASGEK

[2] = Pharmacokinetic evaluation following intravenous and oral administration in rats; type: in vivo; conditions: male, Sprague-Dawley, plasma, rat; for bioavailability: AUCinf (PO)/AUCinf (IV), dose normalized, PO 5 mg/kg, read-out: Oral Bioavailability F (%); for clearance: non-compartmental analysis, read-out: In vivo Clearance (converted)
Method: Male Sprague-Dawley rats are acclimatized for at least 24 hours prior to experiment initiation. During acclimation period, all animals receive food and water ad libitum. However, food but not water is removed from the animal's cages at least 12 hours before initiation of the experiment. During the first 3 hours of experimentation, the animals receive only water ad libitum. At least three animal each are tested for intravenous and oral dosage. For intravenous formulation, compounds were dissolved (0.25 to 1 mg/mL) in a mixture of 3% dimethyl sulfoxide, 40% PEG 400 and the rest percentage of 40% Captisol in water (w/v). For oral formulation, compounds of this invention are dissolved (2 mg/mL) in a mixture of 5% of 10% Tween 80 in water (v/v) and 95% of 0.5% methyl cellulose in water (w/v). The animals are weighed before dosing. The determined body weight is used to calculate the dose volume for each animal.
Dose volume(mL/kg)=1 mg/kg/formulation concentration(mg/mL)
In instances where the formulation concentrations were less than 0.5 mg/mL, the dosing volume is about 2 mL/kg. PO rats are typically dosed through oral gavage at 2.5 mL/kg to achieve a dose level of 5 mg/kg. For IV dosing, blood samples are collected (using a pre-heparinized syringe) via the jugular vein catheter at 2, 5, 15, 30, 60, 120, 180, 300, 480, and 1440 minutes post dosing. For PO dosing, blood samples are collected (using a pre-heparinized syringe) via the jugular vein catheter before dosing and at 5, 15, 30, 60, 120, 180, 300, 480, and 1440 minutes post dosing. About 250 uL of blood is obtained at each time point from the animal. Equal volumes of 0.9% normal saline are replaced to prevent dehydration. The whole blood samples are maintained on ice until centrifugation. Blood samples are then centrifuged at 14,000 rpm for 10 minutes at 4° C. and the upper plasma layer transferred into a clean vial and stored at −80° C. The resulting plasma samples are then analyzed by liquid chromatography-tandem mass spectrometry. Following the measurement of plasma samples and dosing solutions, plasma concentration-time curve is plotted. Plasma exposure is calculated as the area under the concentration-time curve extrapolated to time infinite (AUCinf). The AUCinf is averaged and the oral bioavailability (% F) for individual animal is calculated as:
AUCinf (PO)/AUCinf (IV), normalized to their respective dose levels. The % F is reported as the mean % F of all animals dosed orally with the compound of the invention at the specified level (Table 6).
In vivo clearance in the rat was calculated by conducting a non-compartmental analysis of the pharmacokinetic profile using WinNonlin software.

VR1 [3] = target: T1, VR1; test: Acid stimulation assay (FDSS 6000); type: cell-based; conditions: final assay buffer pH5.8, 15 min pre-incubation
Method: The Acid-induced changes in the intracellular calcium concentration were monitored using FDSS 6000 (Hamamatsu Photonics, Japan), a fluorometric imaging system. The cell suspension in resting buffer (HBSS supplemented with 10 mM HEPES, pH 7.4) was pre-incubated with varying concentrations of the test compounds or resting buffer (buffer control) for 15 minutes at room temperature under dark conditions. The cells were automatically added the stimulating solution (HBSS supplemented with MES, final assay buffer pH5.8) by the FDSS 6000.
Target sequence in this assay (Q8NER1 whole entry, species assumed): as the sequence (Q8NER1 whole entry) above

| Structure (SMILES) | inhibition at 0.3 µM (VR1 [1]) [%] | bioavailability [2] [%] | clearance [2] [mL/min/kg] | IC50 (VR1 [3]) [nM] |
| --- | --- | --- | --- | --- |
| Cc1cc(/C=C/C(F)(F)F)ccc1C(=O)Nc1ccc2c(c1)C(=O)N(CCO)C2=O [Compound 404, (E)-N-(2-(2-hydroxyethyl)-1,3-dioxoisoindolin-5-yl)-2-methyl-(3,3,3-trifluoroprop-1-enyl)benzamide] | 10 |  |  |  |
| O=C(Nc1cccc2cnccc12)c1ccc(/C=C/C(F)(F)F)cc1F [Compound 160] |  | 22 | 85.4 |  |
| Cc1cc(/C=C/C(F)(F)F)ccc1C(=O)Nc1ccc2c(c1)N(C(=O)C1CC1)CC2 [Compound 402, (E)-N-(1-cyclopropanecarbonyl-2,3-dihydro-1H-indol-6-yl)-2-methyl-4-(3,3,3-trifluoro-prop-1-enyl)benzamide] | 0 |  |  |  |
| Cc1cc(/C=C/C(F)(F)F)ccc1C(=O)Nc1cccc2c1C[C@H](O)CC2 (single isomer, unassigned) [Compound 314] | 121 |  |  | 23 |
| Cc1cc(/C=C/C(F)(F)F)ccc1C(=O)Nc1cnc2cc(C(C)O)cnc2c1 (stereo not shown) [Compound 320, (E)-N-(7-(1-hydroxyethyl)-1,5-naphthyridin-3-yl)-2-methyl-4-(3,33-trifluoroprop-1-enyl)benzamide] | 47 |  |  |  |
| COc1cc(/C=C/C(F)(F)F)ccc1C(=O)Nc1ccc2c(c1)OCCO2 [Compound 123] |  |  | 32 |  |
| Cc1cc(C#CC(C)(C)C)ccc1C(=O)Nc1cnc2ccccc2c1 [Compound 181] |  | 1 | 41.8 |  |
| Cc1cc(C#CC(C)(C)C)ccc1C(=O)Nc1cccc2c(Cl)nccc12 [Compound 199] | 67 |  |  |  |
| Cc1cc(/C=C/C(F)(F)F)ccc1C(=O)Nc1ccc2cccnc2c1 [Compound 224] |  | > 100 | 9.97 |  |
| Cc1cc(C#CC2CCCC2)ccc1C(=O)Nc1ccc2c(c1)OCC(CO)N2 (stereo not shown) [Compound 125] |  | 17 | 33.7 |  |
| C/C(=C\c1ccc(C(=O)Nc2cnc3ccccc3c2)c(C)c1)C(F)(F)F [Compound 316] | 52 |  |  |  |
| Cc1cc(/C=C/C(F)(F)F)ccc1C(=O)Nc1cnc2cc(C(C)(C)O)cnc2c1 [Compound 326, (E)-N-(7-(2-hydroxypropan-2-yl)-1,5-naphthyridin-3-yl)-2-methyl-4-(3,3,3-trifluoroprop-1-enyl)benzamide] | 6.76 |  |  |  |
| O=C(Nc1ccc2c(c1)OCC(CO)N2)c1ccc(C#CC2CC2)cc1F (stereo not shown) [Compound 127] |  | 66 | 30.9 |  |
| Cc1cc(/C=C/C(F)(F)F)ccc1C(=O)Nc1cnc2ncccc2c1 [Compound 321, (E)-2-methyl-N-(1,8-naphthyridin-3-yl)-4-(3,3,3-trifluoroprop-1-enyl)benzamide] | 41.5 |  |  |  |
| Cc1cc(/C=C/C(F)(F)F)ccc1C(=O)Nc1ccc2c(c1)C(=O)CCC2 [Compound 306, (E)-2-methyl-N-(8-oxo-5,6-7,8-tetrahydronaphthylen-2-yl)-4(3,3,3-trifluoroprop-1-enyl)benzamide] | 51 |  |  |  |
| Cc1cc(C#CC2CC2)ccc1C(=O)Nc1ccc2c(c1)OCC(CO)N2 (stereo not shown) [Compound 124] |  | 67 | 20.7 |  |
| Cc1cc(/C=C/C(F)(F)F)ccc1C(=O)Nc1ccc2cc(CO)cnc2c1 [Compound 228] |  | 39 | 37.4 |  |
| Cc1cc(/C=C/C(F)(F)F)ccc1C(=O)Nc1cnc2c(c1)CC(O)CC2 (stereo not shown) [Compound 315, (E)-N-(6-hydroxy-5,6,7,8-tetrahydroquinolol-3-yl)-2-methyl-4-(3,3,3-trifluoroprop-1-enyl)benzamide] | 51.3 |  |  |  |
| Cc1cc(/C=C/C(F)(F)F)ccc1C(=O)Nc1cnc2[nH]ccc2c1 [Compound 230] |  | 17 | 15.3 |  |
| Cc1cc(/C=C/C(F)(F)F)ccc1C(=O)Nc1ccc2ccc(O)nc2n1 [Compound 311, (E)-N-(7-hydroxy-1,8-naphthyridin-2-yl)-2-methyl-4-(3,3,3-trifluoroprop-1-en-1)benzamide] | 20 |  |  |  |
| O=C(Nc1ccc2c(c1)OCC(CO)N2)c1ccc(/C=C/C(F)(F)F)cc1F (stereo not shown) [Compound 144] |  | 68 | 31.5 |  |
| Cc1cc(/C=C/C(F)(F)F)ccc1C(=O)Nc1ccc2c(CO)n[nH]c2c1 [Compound 231] | 0 |  |  |  |

| Structure (SMILES) | inhibition at 0.3 µM (VR1 [1]) [%] | bioavailability [2] [%] | clearance [2] [mL/min/kg] | IC50 (VR1 [3]) [nM] |
| --- | --- | --- | --- | --- |
| O=C(Nc1ccc2c(c1)OCCN2)c1ccc(/C=C/C(F)(F)F)cc1F [Compound 134] |  | 63 | 85.1 |  |
| Cc1cc(/C=C/C(F)(F)F)ccc1C(=O)Nc1ccc2c(c1)N(C(=O)C(C)(C)C)CC2 [Compound 405, (E)-N-[1-(2,2-dimethyl-propionyl)-2,3-dihydro-1H-indol-6-yl]-2-methyl-4-(3,3,3-trifluoro-prop-1-enyl)benzamide] | 14 |  |  |  |
| Cc1cc(/C=C/C(F)(F)F)ccc1C(=O)Nc1ccc2c(c1)OCCN2 [Compound 118] |  |  | 17.7 |  |
| Cc1nc2cc(NC(=O)c3ccc(C#CC(C)(C)C)cc3C)ccc2s1 [Compound 162] |  | 2 | 44.3 |  |
| O=C(Nc1ccc2c(c1)OCC(CO)N2)c1c(F)cc(C#CC2CC2)cc1F (stereo not shown) [Compound 129] |  | 68 | 1.88 |  |
| Cc1nc2cc(NC(=O)c3ccc(/C=C/C(F)(F)F)cc3C)ccc2s1 [Compound 188] |  | 8 | 7.7 |  |
| CS(=O)(=O)c1cc(C#CC2CCCC2)ccc1C(=O)Nc1ccc2c(c1)OCCO2 [Compound 159] | 0 |  |  |  |
| O=C(Nc1ccc2c(c1)OCC(CO)N2)c1ccc(/C=C/C(F)(F)F)cc1Cl (stereo not shown) [Compound 157] |  | 83 | 15.6 |  |
| CC(C)(C)C#Cc1ccc(C(=O)Nc2ccc3c(c2)OC[C@H](CO)N3)c(F)c1 [Compound 172] |  | 76 | 41.2 |  |
| Cc1cc(/C=C/C(F)(F)F)ccc1C(=O)Nc1ccc2c(c1)OCC(CO)N2 (stereo not shown) [Compound 131] |  | > 100 | 21.6 |  |
| Cc1cc(C#CC(C)(C)C)ccc1C(=O)Nc1ccc2c(c1)OC[C@@H](CO)N2 [Compound 184] |  | 17 | 35.2 |  |
| Cc1cc(/C=C/C(F)(F)F)ccc1C(=O)Nc1ccc2cc(C(=O)O)cnc2c1 [Compound 301] | 43 |  |  |  |
| CC(C)(C)C#Cc1ccc(C(=O)Nc2cnc3ccccc3c2)c(Cl)c1 [Compound 164] |  | 1 | 33.5 |  |
| CC(=O)c1cnc2cc(NC(=O)c3ccc(/C=C/C(F)(F)F)cc3C)cnc2c1 [Compound 324] | 0.74 |  |  |  |
| CC(C)(C)C#Cc1ccc(C(=O)Nc2ccc3c(c2)OCC(CO)N3)c(Cl)c1 (stereo not shown) [Compound 158] |  | 42 | 13 |  |
| CC(=O)N1CCCc2ccc(NC(=O)c3ccc(/C=C/C(F)(F)F)cc3C)cc21 [Compound 322, (E)-N-(1-acetyl-1,2,3,4-tetrahydroquinolin-7-yl)-2-methyl-4-(3,3,3-trifluoroprop-1-enyl)benzamide] | 42.7 |  |  |  |
| O=C(Nc1ccc2c(c1)OCC(CO)N2)c1ccc(C#CC2CCCC2)cc1F (stereo not shown) [Compound 126] |  | 35 | 44.9 |  |
| COc1cc(/C=C/C(F)(F)F)ccc1C(=O)Nc1ccc2c(c1)OCCN2 [Compound 122] |  |  | 61 |  |
| CC(C)(C)C#Cc1ccc(C(=O)Nc2ccc3c(c2)OCC(CO)N3)c(F)c1 (stereo not shown) [Compound 138] |  | 36 | 38.7 |  |
| O=C(Nc1ccc2c(c1)OCCN2)c1ccc(C#CC2CC2)nc1Cl [Compound 119] | 0 |  |  |  |
| O=C(Nc1ccc2c(c1)OCC(CO)N2)c1ccc(C#CC2CC2)cc1Cl (stereo not shown) [Compound 156] | 102 |  |  |  |
| Cc1cc(C#CC(C)(C)C)ccc1C(=O)Nc1cccc2cnccc12 [Compound 163] |  | 53 | 110 |  |
